Here are results for 10 molecules from patent US6187905A, “Alpha-ketoamide derivatives” (Hoffmann-La Roche Inc., priority 1998, dated 2001).

*1 amine or outer side, *2 acyl side, *3 side chain or, on linkers, in order; H or OH if unused. Where a SMILES comes first, the peptide text is derived from it. [ ]: non-standard residue; d: D form. The star is where a group is joined. Phe(2-Me) = Cc1ccccc1C[C@H](N)C(=O)O; NleCONH2 = CCCC[C@H](N*)C(=O)C(N)=O; Suc = O=C(CCC(=O)[*:2])[*:1]; Tle = CC(C)(C)[C@H](N)C(=O)O

HCV proteinase, sequence (P27958 1027-1208): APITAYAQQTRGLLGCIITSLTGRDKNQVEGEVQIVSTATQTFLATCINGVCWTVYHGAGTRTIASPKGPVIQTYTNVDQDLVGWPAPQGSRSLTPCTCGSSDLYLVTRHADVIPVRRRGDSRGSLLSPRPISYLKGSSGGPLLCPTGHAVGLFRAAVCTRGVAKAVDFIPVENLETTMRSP

The first test has as its target HCV proteinase (Hepatitis C virus genotype 1a, UniProt P27958). The experiment in a line: HCV proteinase inhibition assay (described in WO 98/22496).
Settings: not given
Format: biochemical. The source says:
As mentioned earlier, the compounds of formula I and their salts are inhibitors of proteases of viral origin. For example, all compounds of formula 1 are inhibitors against HCV protease.
On to `Cc1ccccc1C[C@H](NC(=O)[C@H](CCC(=O)O)NC(=O)[C@H](CC(=O)O)NC(=O)CCC(=O)O)C(=O)N[C@H](C(=O)N[C@@H](CC(C)C)C(=O)NC(CC(F)(F)F)C(=O)C(=O)N[C@H](c1ccccc1)C(C)C)C(C)(C)C` (mixture of isomers) [C, 3(RS)-[[N-[N-[N-[N-[N-(3-Carboxypropionyl)-L-α-aspartyl]-L-α-glutamyl]-2-methyl-L-phenylalanyl]-3-methyl-L-valyl]-L-leucyl]amino]-5,5,5-trifluoro-N-(2-methyl-1(S)-phenylpropyl)-2-oxovaleramide], for which it took 7 nM to reach half-maximal inhibition (IC50).

Take `Cc1ccccc1C[C@H](NC(=O)[C@H](CCC(=O)O)NC(=O)[C@H](CC(=O)O)NC(=O)CCC(=O)O)C(=O)N[C@H](C(=O)N[C@@H](CC(C)C)C(=O)NC(CC(F)(F)F)C(=O)C(N)=O)C(C)(C)C` (single isomer, unassigned) [D, 3(R or S)-[[N-[N-[N-[N-[N-(3-Carboxypropionyl)-L-α-aspartyl]-L-α-glutamyl]-2-methyl-L-phenylalanyl]-3-methyl-L-valyl]-L-leucyl]amino]-5,5,5-trifluoro-2-oxovaleramide]: the IC50 (commonly the point on the concentration scale where inhibition reaches its midpoint) stood at 7 nM.

`Cc1ccccc1C[C@H](NC(=O)[C@H](CCC(=O)O)NC(=O)[C@H](CC(=O)O)NC(=O)CCC(=O)O)C(=O)N[C@H](C(=O)N[C@@H](CC(C)C)C(=O)NC(CC(F)(F)F)C(=O)C(=O)N[C@@H](C)c1ccccc1)C(C)(C)C` (mixture of isomers) [G, 3(RS)-[[N-[N-[N-[N-[N-(3-Carboxypropionyl)-L-α-aspartyl]-L-α-glutamyl]-2-methyl-L-phenylalanyl]-3-methyl-L-valyl]-L-leucyl]amino]-5,5,5-trifluoro-N-(α(S)-methylbenzyl)-2-oxovaleramide]: the midpoint of inhibition, the IC50, lay at 4 nM.

The molecule `Cc1ccccc1C[C@H](NC(=O)[C@H](CCC(=O)O)NC(=O)[C@H](CC(=O)O)NC(=O)CCC(=O)O)C(=O)N[C@H](C(=O)N[C@@H](CC(C)C)C(=O)NC(CC(F)(F)F)C(=O)C(=O)NCc1ccccc1)C(C)(C)C` (mixture of isomers) [H, N-Benzyl-3(RS)-[[N-[N-[N-[N-[N-(3-carboxypropionyl)-L-α-aspartyl]-L-α-glutamyl]-2-methyl-L-phenylalanyl]-3-methyl-L-valyl]-L-leucyl]amino]-5,5,5-trifluoro-2-oxovaleramide] yielded a concentration for half-maximal inhibition (IC50) of 4 nM.

Molecule `Cc1ccccc1C[C@H](NC(=O)[C@H](CCC(=O)O)NC(=O)[C@H](CC(=O)O)NC(=O)CCC(=O)O)C(=O)N[C@H](C(=O)N[C@@H](CC(C)C)C(=O)NC(CC(F)(F)F)C(=O)C(=O)NCc1ccc(O)cc1)C(C)(C)C` (mixture of isomers) [E, 3(RS)-[[N-[N-[N-[N-[N-(3-Carboxypropionyl)-L-α-aspartyl]-L-α-glutamyl]-2-methyl-L-phenylalanyl]-3-methyl-L-valyl]-L-leucyl]amino]-5,5,5-trifluoro-N-(4-hydroxybenzyl)-2-oxovaleramide] displayed an IC50 of 4 nM.

Molecule `CCCC[C@H](NC(=O)[C@H](CC(C)C)NC(=O)[C@@H](NC(=O)[C@H](Cc1ccccc1C)NC(=O)[C@H](CCC(=O)O)NC(=O)[C@H](CC(=O)O)NC(=O)CCC(=O)O)C(C)(C)C)C(=O)C(N)=O` [J, 3(S)-[[N-[N-[N-[N-[N-(3-Carboxypropionyl)-L-α-aspartyl]-L-α-glutamyl]-2-methyl-L-phenylalanyl]-3-methyl-L-valyl]-L-leucyl]amino]-2-oxoheptanamide] (Suc-DE[Phe(2-Me)][Tle]L-NleCONH2) yielded a half-maximal inhibitory concentration (IC50) of 11.5 nM.

Regarding `CC[C@H](NC(=O)C(=O)C(CC(F)(F)F)NC(=O)[C@H](CC(C)C)NC(=O)[C@@H](NC(=O)[C@H](Cc1ccccc1C)NC(=O)[C@H](CCC(=O)O)NC(=O)[C@H](CC(=O)O)NC(=O)CCC(=O)O)C(C)(C)C)c1ccccc1` (mixture of isomers) [B, 3(RS)-[[N-[N-[N-[N-[N-(3-Carboxypropionyl)-L-α-aspartyl]-L-α-glutamyl]-2-methyl-L-phenylalanyl]-3-methyl-L-valyl]-L-leucyl]amino]-5,5,5-trifluoro-2-oxo-N-(1(S)-phenylpropyl)valeramide], the IC50 stood at 7 nM.

For the molecule `COc1cccc(CNC(=O)C(=O)C(CC(F)(F)F)NC(=O)[C@H](CC(C)C)NC(=O)[C@@H](NC(=O)[C@H](Cc2ccccc2C)NC(=O)[C@H](CCC(=O)O)NC(=O)[C@H](CC(=O)O)NC(=O)CCC(=O)O)C(C)(C)C)c1` (mixture of isomers) [F, 3(RS)-[[N-[N-[N-[N-[N-(3-Carboxypropionyl)-L-α-aspartyl]-L-α-glutamyl]-2-methyl-L-phenylalanyl]-3-methyl-L-valyl]-L-leucyl]amino]-5,5,5-trifluoro-N-(3-methoxybenzyl)-2-oxovaleramide], half-maximal inhibition (IC50) required 6 nM.

Staying with this test, now noted: read-out: HCV proteinase IC50.
Take `Cc1ccccc1C[C@H](NC(=O)[C@H](CCC(=O)O)NC(=O)[C@H](CC(=O)O)NC(=O)CCC(=O)O)C(=O)N[C@H](C(=O)N[C@@H](CC(C)C)C(=O)NC(CC(F)(F)F)C(=O)C(=O)N[C@@H](C)c1ccc2ccccc2c1)C(C)(C)C` (mixture of isomers) [A]: the IC50 was determined as 4 nM.

As for `Cc1ccccc1C[C@H](NC(=O)[C@H](CCC(=O)O)NC(=O)[C@H](CC(=O)O)NC(=O)CCC(=O)O)C(=O)N[C@H](C(=O)N[C@@H](CC(C)C)C(=O)NC(CC(F)(F)F)C(=O)C(=O)N[C@@H](C)c1ccc2ccccc2c1)C(C)(C)C` (mixture of isomers) [I], the IC50 was 8 nM.
